Measurements published in patent US8975415B2, “Chromane compounds” (CoMentis, Inc., priority 2012, dated 2015).

Columns and labels:
[1] = system: Aβ42; assay: Brain Aβ reduction in rats (Aβ42 ELISA); type: in vivo, Sprague-Dawley rats; details: rat, oral
Description: Effects on brain Aβ reduction in rats were determined with reference to the method described in the WO2012/054510. […] Concretely, the test was conducted with the method as below.
Test compounds were prepared in a vehicle of 35% HPβCD in H2O. The test compound was formulated the same day as oral dosing. Doses (see [Table. 1]) were based on the free base equivalent. Sonication was used where required to facilitate the formulation.
Male Sprague-Dawley rats (150-300 grams) were obtained from Charles River Japan (Atsugi, Japan) and were given approximately 4 days of acclimation. Food and water was made available ad libitum throughout the study. Animals were visually inspected for health before being included into the study group, and were randomly assigned to the treatment and control groups to achieve similar group mean body weights. The dosing solution (dose volume 5 mL/kg) was administered directly into the stomach using a rodent gavage needle. Control animals received oral administration of equivalent volume of the vehicle.
At a time post-dose (e.g., 3 hours; see [Table. 1]), animals were euthanized with isoflurane. […] Plasma was separated using centrifugation at 15,000 rpm (20,400×g) for 5 minutes at 4° C. and subsequently stored at −80° C. After blood sampling, CSF (cerebrospinal fluid) was carefully withdrawn from the cisterna magna using a 29 gauge needle after a quick dissection to expose the atlantooccipital membrane. The CSF samples were centrifuged at 15,000 rpm (20,400×g) for 5 minutes to confirm free of blood contamination and stored at −80° C. Immediately after decapitation, the hippocampus were isolated on ice, and quickly frozen in liquid nitrogen and stored at −80° C.
Fragments of the hippocampus were weighed while frozen. A 10-fold volume (w:v) of TBS (Tris-buffered saline) supplemented with a Complete Mini protease inhibitor tablet (catalog number: 11 836 153 001, Roche Diagnostics, In, USA) was added. The hippocampus were homogenized using sonication on ice in microcentrifuge tube. Resulting homogenates were centrifuged at 100,000×g for 1 hour in a refrigerated centrifuge at 4° C. Supernatants were collected as soluble fraction.
Each concentration of Aβ42 was divided by the mean concentration of Aβ42 of vehicle-treated group, and these ratios were converted to percentages.

[2] = molecular target: hERG potassium channel (Homo sapiens (Human), UniProt Q12809); assay: hERG inhibition, automated planar patch-clamp in hERG-expressing CHO cells; details: read-out: Test Example 5 hERG IC50; whole-cell patch clamp, room temperature
Sequence of hERG potassium channel (Q12809 whole entry): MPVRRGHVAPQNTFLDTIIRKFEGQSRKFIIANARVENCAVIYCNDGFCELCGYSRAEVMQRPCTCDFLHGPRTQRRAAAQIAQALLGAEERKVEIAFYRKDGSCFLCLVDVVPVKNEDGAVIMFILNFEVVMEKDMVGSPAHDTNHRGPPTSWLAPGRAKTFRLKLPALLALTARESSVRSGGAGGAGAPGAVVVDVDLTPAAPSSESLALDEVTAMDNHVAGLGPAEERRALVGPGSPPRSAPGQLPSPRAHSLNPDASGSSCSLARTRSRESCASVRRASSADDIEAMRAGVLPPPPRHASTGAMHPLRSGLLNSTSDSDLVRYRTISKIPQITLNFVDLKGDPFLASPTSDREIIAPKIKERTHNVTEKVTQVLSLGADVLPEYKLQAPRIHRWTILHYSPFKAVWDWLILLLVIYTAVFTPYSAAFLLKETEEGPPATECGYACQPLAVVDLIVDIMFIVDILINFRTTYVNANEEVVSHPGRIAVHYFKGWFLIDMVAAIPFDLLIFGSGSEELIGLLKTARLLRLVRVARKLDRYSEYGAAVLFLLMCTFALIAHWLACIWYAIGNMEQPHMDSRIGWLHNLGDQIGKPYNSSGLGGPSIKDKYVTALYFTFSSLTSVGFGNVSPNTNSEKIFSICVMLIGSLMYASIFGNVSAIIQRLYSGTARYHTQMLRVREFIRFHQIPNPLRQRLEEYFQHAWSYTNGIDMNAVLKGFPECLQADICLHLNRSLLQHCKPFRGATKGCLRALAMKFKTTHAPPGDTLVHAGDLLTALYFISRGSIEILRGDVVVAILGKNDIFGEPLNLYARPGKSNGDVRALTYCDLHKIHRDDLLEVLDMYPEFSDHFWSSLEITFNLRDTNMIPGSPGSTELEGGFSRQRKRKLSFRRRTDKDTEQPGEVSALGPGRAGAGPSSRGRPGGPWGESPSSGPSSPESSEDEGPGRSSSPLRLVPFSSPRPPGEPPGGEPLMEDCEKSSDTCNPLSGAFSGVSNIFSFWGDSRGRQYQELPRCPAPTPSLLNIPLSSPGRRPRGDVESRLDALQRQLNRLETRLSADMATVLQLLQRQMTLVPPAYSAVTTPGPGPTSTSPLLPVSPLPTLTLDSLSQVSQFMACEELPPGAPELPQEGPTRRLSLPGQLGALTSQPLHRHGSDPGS

[3] = molecular target: T1, BACE1 (Homo sapiens (Human), UniProt P56817); assay: Measurement of Aβ production inhibition in cell (SK-N-BE(2) neuroblastoma cells, Aβ40 ELISA); details: Test Example 3 IC50, Aβ40 production, SK-N-BE(2) cells, 6 hours
Target sequence in this assay (P56817 46-501): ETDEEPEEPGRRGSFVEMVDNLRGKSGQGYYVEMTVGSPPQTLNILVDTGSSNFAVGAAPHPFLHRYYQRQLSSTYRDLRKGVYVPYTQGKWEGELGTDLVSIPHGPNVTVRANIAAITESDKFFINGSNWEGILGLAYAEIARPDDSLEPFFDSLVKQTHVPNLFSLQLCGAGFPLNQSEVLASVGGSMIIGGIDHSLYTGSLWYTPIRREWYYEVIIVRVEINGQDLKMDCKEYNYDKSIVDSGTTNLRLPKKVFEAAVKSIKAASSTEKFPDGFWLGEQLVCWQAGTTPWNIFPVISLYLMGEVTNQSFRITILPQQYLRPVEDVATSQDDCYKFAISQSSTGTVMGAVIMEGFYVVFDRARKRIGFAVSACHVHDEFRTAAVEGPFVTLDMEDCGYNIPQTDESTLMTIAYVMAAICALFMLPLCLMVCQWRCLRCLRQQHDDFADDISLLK
Description: The potency of compounds against BACE1 activity was determined in a cellular assay of Aβ production. […] Test compounds were dissolved in dimethyl sulfoxide and diluted with dimethyl sulfoxide and put into RPMI1640/5% FBS/penicillin-streptomycin media (final dimethyl sulfoxide concentration is 0.5%). […] CellTiter-Glo Substrate was dissolved into CellTiter-Glo Buffer and added to the plates in 95 μL/well. After shaking the plates for 2 minutes, the whole sample was transferred into a white 96-well plate and luminescence was measured for ATP quantification as the cell viability. Aβ concentration measured by ELISA was normalized by the viability of the corresponding cells.

[4] = molecular target: T1, BACE1; assay: Measurement of BACE1 inhibition by fluorescence resonance energy transfer (FRET), MCA substrate; details: FRET
Target sequence in this assay (P56817 75-416): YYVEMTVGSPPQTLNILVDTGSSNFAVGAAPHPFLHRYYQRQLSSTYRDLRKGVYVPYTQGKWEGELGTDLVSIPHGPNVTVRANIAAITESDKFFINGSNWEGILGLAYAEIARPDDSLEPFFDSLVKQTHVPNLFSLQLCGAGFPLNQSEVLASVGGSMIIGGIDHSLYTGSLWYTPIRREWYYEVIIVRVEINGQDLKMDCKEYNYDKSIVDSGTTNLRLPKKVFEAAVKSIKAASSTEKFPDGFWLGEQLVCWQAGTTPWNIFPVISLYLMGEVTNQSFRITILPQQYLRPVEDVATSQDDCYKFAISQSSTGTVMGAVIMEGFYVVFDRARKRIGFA

[5] = molecular target: T1, BACE1; assay: Measurement of BACE1 inhibition by time resolved fluorescence resonance energy transfer (TR-FRET); type: biochemical; details: Eu-CEVNLDAEFK-QSY 7 substrate, read-out: Test Example 2 IC50
Target sequence in this assay (P56817 75-416): as above
Description: If the sample contains BACE1 activity, the Eu chelate and the quencher will be separated as the substrate is cleaved. The Eu-signal increases and it can be measured by time-resolved fluorometry, EnVision™, 30 minutes after the substrate (final concentration 300 nM) was added.

CC1(C)Oc2ccc(NC(=O)c3cnc(C(F)F)cn3)cc2[C@@]2(COC(N)=N2)C12CC2.Cl
melting point: 254 °C

CC1(C)Oc2ccc(NC(=O)c3ccc(Cl)cn3)cc2[C@@]2(COC(N)=N2)C12COC2 (hydrate or solvate) [Example 218, N-[(4S)-2-amino-2′,2′-dimethyldispiro[1,3-oxazole-4,4′-chromene-3′,3″-oxetan]-6′-yl]-5-chloropyridine-2-carboxamide]
melting point: 165 °C

CC1(C)Oc2ccc(NC(=O)c3ccc(Cl)cn3)cc2[C@@]2(COC(N)=N2)C12COC2 [Example 218, N-[(4S)-2-amino-2′,2′-dimethyldispiro[1,3-oxazole-4,4′-chromene-3′,3″-oxetan]-6′-yl]-5-chloropyridine-2-carboxamide]
Test Example 4 Aβ42 reduction (%) ([1]; 3 mg/kg, 2.5 hours): 24%
Test Example 4 Aβ42 reduction (%) ([1]; 10 mg/kg, 2.5 hours): 31%

COc1cnc(C(=O)Nc2ccc3c(c2)[C@@]2(COC(N)=N2)C2(COC2)C(C)(C)O3)cn1 [Example 220]
IC50 [2]: > 10 µM
Test Example 4 Aβ42 reduction (%) ([1]; 3 mg/kg, 1.5 hours): 21%
Test Example 4 Aβ42 reduction (%) ([1]; 10 mg/kg, 1.5 hours): 27%

CC1(C)Oc2ccc(NC(=O)c3ccc(Cl)cn3)cc2[C@@]2(COC(N)=N2)C12CC2 [Example 221]
IC50 [3]: 0.00016 µM
Ki ([4]; read-out: Test Example 1 BACE1 MCA Ki, MCA substrate): 0.0378 µM
IC50 ([4]; read-out: Test Example 1 IC50, MCA-SEVNLDAEFK(DNP)-NH2 substrate, pH 4.4): 0.0818 µM
Test Example 4 Aβ42 reduction (%) ([1]; 1 mg/kg, 3 hours): 24%
Test Example 4 Aβ42 reduction (%) ([1]; 3 mg/kg, 3 hours): 42%

COc1cnc(C(=O)Nc2ccc3c(c2)[C@@]2(COC(N)=N2)C2(CC2)C(C)(C)O3)cn1 [Example 223, N-[(4′R)-2″-amino-2′,2′-dimethyldispiro[cyclopropane-1,3′-chromene-4′,4″-[1,3]oxazol]-6′-yl]-5-methoxypyrazine-2-carboxamide]
Test Example 4 Aβ42 reduction (%) ([1]; 1 mg/kg, 3 hours): 19%
Test Example 4 Aβ42 reduction (%) ([1]; 3 mg/kg, 3 hours): 34%

CC1(C)Oc2ccc(NC(=O)c3cnc(C(F)F)cn3)cc2[C@@]2(COC(N)=N2)C12CC2 [Example 224, N-[(4′R)-2″-amino-2′,2′-dimethyldispiro[cyclopropane-1,3′-chromene-4′,4″-[1,3]oxazol]-6′-yl]-5-(difluoromethyl)pyrazine-2-carboxamide]
IC50 [2]: 15.1 µM
Test Example 4 Aβ42 reduction (%) ([1]; 1 mg/kg, 3 hours): 21%
Test Example 4 Aβ42 reduction (%) ([1]; 3 mg/kg, 3 hours): 35%

COc1cnc(C(=O)Nc2ccc3c(c2)[C@@]2(COC(N)=N2)C2(CC2)C(C)(C)O3)cn1 [Example 230, N-[(4′R)-2″-amino-2′,2′-dimethyldispiro[cyclopropane-1,3′-chromene-4′,4″-[1,3]oxazol]-6′-yl]-5-methoxypyrazine-2-carboxamide]
melting point: 191 °C

Cc1cn2cc(-c3ccc4c(c3)C3(COC(N)=N3)C3(COC3)C3(CCC3)O4)ccc2n1 (centres unmarked) [RP 67]
IC50 [5]: 96.5 µM
IC50 [2]: > 10 µM

NC1=NC2(CO1)c1cc(-c3cc(Cl)cnc3F)ccc1OCC21CC1 (centres unmarked) [RP 104]
IC50 [5]: 1.13 µM
IC50 [2]: 3.25 µM

CC1(C)Oc2ccc(-c3cc(Cl)cnc3F)cc2C2(COC(N)=N2)C12COC2 (centres unmarked) [RP 154]
IC50 [5]: 0.313 µM
IC50 [2]: > 1 µM
IC50 [3]: 0.032 µM

NC1=NC2(CO1)c1cc(-c3cncc4ccccc34)ccc1OC1(CCC1)C21COC1 (centres unmarked) [RP 210]
IC50 [5]: 4.95 µM
IC50 [2]: 3.7 µM

Cn1cc2cc(-c3ccc4c(c3)C3(COC(N)=N3)C3(CC3)CO4)ccc2n1 (centres unmarked) [RP 213]
IC50 [5]: 39.6 µM
IC50 [2]: > 10 µM
